One data set deals with SF-295. The experiment in a line: cells. Details: JFCR39 human cancer cell line panel, antiproliferative dose response (optical density), GI50. The note with it: Homo sapiens, SF-295. The protocol:
(§1) Initially, we evaluated new DDP analogues for their antiproliferative activities across the panel of 39 human cancer cell lines, JFCR39[50],[51]. […] Purified DDPs was dissolved in DMSO (Specially Prepared Reagent, Nuclease and Protease tested, NACALAI, 09659-14) to prepare 5 mM solutions. The Each DDP solution (5 mM) was used for antiproliferative effects on cancer cell lines (Supplementary Notes 23, 24, 25, 26), biological activity against Drosophila (Supplementary Note 27), anti-HIV assay (Supplementary Note 28) and screening of amyloid Ab42 aggregation inhibitors (Supplementary Notes 29).

For a further data set, the system named is PC-3. The experiment in a line: cells. Details: JFCR39 human cancer cell line panel, antiproliferative dose response (optical density), GI50. The note with it: Homo sapiens, PC-3. The protocol:
as §1

The next data set relates to HCC2998. The data set can be described thus: cells. Details: JFCR39 human cancer cell line panel, antiproliferative dose response (optical density), GI50. To be noted: Homo sapiens, HCC 2998. Here is the method:
as §1

The subject of the next data set is OVCAR-4. The experiment in a line: cells. Details: JFCR39 human cancer cell line panel, antiproliferative dose response (optical density), GI50. The note with it: Homo sapiens, OVCAR-4. The protocol:
as §1

A further data set concerns DMS273. The experiment in a line: cells. More on the design: JFCR39 human cancer cell line panel, antiproliferative dose response (optical density), GI50. The note with it: Homo sapiens, DMS-273. Here is the method:
as §1

For another data set, the system named is MCF-7. The data set can be described thus: cells. Details: JFCR39 human cancer cell line panel, antiproliferative dose response (optical density), GI50. The note with it: Homo sapiens, MCF7. The protocol:
as §1

For another data set, the system named is SF-268. The data set can be described thus: cells. More on the design: JFCR39 human cancer cell line panel, antiproliferative dose response (optical density), GI50. The note with it: Homo sapiens, SF-268. Here is the method: as §1
A further data set deals with DU-145. The data set can be described thus: cells. To be noted: Homo sapiens, DU-145. Details: JFCR39 human cancer cell line panel, antiproliferative dose response (optical density), GI50. Here is the method: as §1
The subject of the next data set is RXF-631L. The experiment in a line: cells. More on the design: JFCR39 human cancer cell line panel, antiproliferative dose response (optical density), GI50. To be noted: RXF-631L. The protocol: as §1
In the next data set the test system is St-4. The data set can be described thus: cells. Details: JFCR39 human cancer cell line panel, antiproliferative dose response (optical density), GI50. The note with it: Homo sapiens, St-4. The protocol:
as §1

Another data set deals with NCI-H522. The experiment in a line: cells. The note with it: Homo sapiens, NCI-H522. Details: JFCR39 human cancer cell line panel, antiproliferative dose response (optical density), GI50. The protocol:
as §1

Another data set concerns SF-539. The data set can be described thus: cells. The note with it: Homo sapiens, SF-539. Details: JFCR39 human cancer cell line panel, antiproliferative dose response (optical density), GI50. Here is the method: as §1
In data set [1] the test system is ALDH-positive cells in MCF-7 cells. The data set can be described thus: ALDH-positive cell population (ALDEFLUOR, flow cytometry). The note with it: for population of ALDH-positive cells / ALDH-positive cells ave (fold) / ALDH-positive cells ave / ALDH-positive cells (%): MCF-7, 1 μM; for ALDH-positive cells ave (fold) / ALDH-positive cells ave / ALDH-positive cells (%): 3 days; for ALDH-positive cells ave (fold): control = 1; for ALDH-positive cells ave: mean of 3, control 1.4; for ALDH-positive cells (%) / ALDH (+) Cell number (10^4 cells) / ALDH (-) Cell number (10^4 cells): single replicates; for ALDH (+) Cell number (10^4 cells) ave: 0 µM 1.61; for ALDH (-) Cell number (10^4 cells) ave: 0 µM 133.39; for ALDH (+) Cell number ave (fold) / ALDH (-) Cell number ave (fold): 0 µM = 1. Type of data set: cell-based, human. The protocol:
We also evaluated antiproliferative activity against cancer stem cells (CSCs), which are a small sub-population in tumour bulk identified in most cancer cells and clinical samples[52]. CSCs have been a major problem in cancer therapy because they are responsible for recurrence, metastasis and drug resistance to chemotherapeutic agents that affect proliferative cells[53]–[56]. Anti-CSC activity was evaluated by the inhibition of sphere-forming ability, a well-studied method to enrich the CSC-like population, and selective cytotoxicity against one of the most reliable CSC markers, aldehyde dehydrogenase (ALDH)-positive cells. […] Low-toxicity 16 was also added as a negative control. […] We next evaluated the three DDPs that inhibited mammosphere formations against ALDH-positive cells, a functional marker for breast CSCs. MCF-7 cells were treated with 1 μM of 11, 12 or 22, and the ALDH-positive cell population was analysed by using a fluorescence activated cell sorter (Supplementary Fig. 46b). […] Thus, for the first time, we successfully found DDPs with potent antiproliferative effects on the CSC-like population in MCF-7 cells, which may lead to new anti-CSC drugs.
Fig. 5 DDPs show anti-CSC activity in breast cancer cell line MCF-7. a Effect of DDPs on mammosphere formation. After the cells were cultured in the presence of 5 μM DDPs for 7 days, the number of mammospheres was microscopically counted and the percentage of mammosphere-forming cells was determined as mammosphere-forming efficiency (MFE; %). Data represent mean ± s.d. from three independent replicate experiments. P-values were calculated by a two-sided unpaired Student’s t-test, compared with control. b Micrographs show representative images of mammosphere formation from three independent replicate experiments using compound 11, 12, 16, 22. The scale bar, […]. c Effect of DDPs (1 μM, 3 days) on ALDH-positive cells in MCF-7 cells. Data represent mean ± s.d. from three independent replicate experiments. P-values were calculated by a two-sided unpaired Student’s t-test, compared with control. d Dose-dependent effect of compound 12 on ALDH-positive cells in MCF-7 cells. Data represent mean ± s.d. from three independent replicate experiments. P-values were calculated by a two-sided unpaired Student’s t-test. Source data underlying Fig. 5a, c, d are provided in a Source Data file.
!" ' ' '! !" ' ' '! !" ' ' '!!" ' ' '!!" ' ' '!!" ' ' '!!" ' ' '!!" ' ' '! !" ' ' '! !" ' ' '! !" ' ' '! !"#$ ( % ) * '! '' '# '+ '$ '( '% […]
Main population Single cells Single cells
(negative control) Without DEAB […]
P-values are calculated using a two-sided unpaired Student’s t-test; * p < 0.05, ** p < 0.01, compared with control. b, Gating strategy of flow cytometry analysis for detecting ALDH-positive cells. All samples were analyzed by sequential gating including main population (G1), single cells (G2, G3). Negative control with DEAB was used to establish G4 (ALDH-negative cells) and G5 (ALDH-positive cells). […]
Policy information about cell lines […]
were distributed from National Cancer Institute (Frederick, MD). HT-29, MCF-7, DU-145 and PC-3 were purchased from […]

Another data set has as its target Aβ42 (Homo sapiens, UniProt P05067). The experiment in a line: TEM analysis of amyloid fibrils formed by Aβ42. Type of data set: biochemical.

Where “and” joins values, the source holds several entries; their conditions need not be identical. Equal values may be shown once.

The GI50 is the concentration that inhibits growth by half. A lower GI50 goes with more potent growth inhibition.

Sequence of Aβ42 (P05067 672-713): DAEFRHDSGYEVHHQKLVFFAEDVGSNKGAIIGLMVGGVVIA

Consider `C=C1CC[C@H]2[C@]3(C)C[C@H](C=C(C)C)O[C@H]3CC[C@]2(C)[C@@H]1Cc1c(OC)oc(C)c(C)c1=O` [Compound 24], for which the 50% growth inhibitory concentration (GI50) in the data set with SF-295 turned out to be 2.21 µM; with PC-3, 11.8 µM; with HCC2998, 12.7 µM; with OVCAR-4 it was 6.49 µM; in the data set with DMS273, 0.484 µM; with MCF-7, 1.53 µM. The GI50 in the data set with SF-268 came to 8.09 µM; in the data set with DU-145 it was 12.2 µM; with RXF-631L, 10.9 µM; in the data set with St-4, 12.2 µM; in the data set on NCI-H522, 0.754 µM; with SF-539, 7.26 µM.
Turning to `C=C1CCC2C(C)(CCC=C(C)C)C(O)CCC2(C)C1Cc1c(OC)oc(C)c(C)c1=O` (stereo not drawn) [Compound 11], in [1], the “population of ALDH-positive cells” value is “reduced the population of ALDH-positive cells”; the “ALDH-positive cells ave (fold)” value was 0.40 fold; the ALDH-positive cells ave is listed as 0.57%; the “ALDH-positive cells (%)” value was 0.4% and 0.9%.
Turning to `C=C1CC[C@@H]2[C@](C)(CC[C@H]3O[C@H](C=C(C)C)C[C@@]23C)[C@@H]1Cc1c(OC)oc(CO)c(C(=O)OC)c1=O` [Compound 21], the “formation of typical amyloid fibrils of Aβ42” value at Aβ42 is recorded as “strongly prevented”.
For `C=C1CCC2C(C)(CCC=C(C)C)C(O)CCC2(C)C1Cc1c(OC)oc(CO)c(C)c1=O` (stereo not drawn) [Compound 12], in data set [1] (MCF-7, 0.1 µM), the “ALDH (+) Cell number (10^4 cells) ave” value was 0.68 10^4 cells, the “ALDH (-) Cell number (10^4 cells) ave” value is listed as 96.66 10^4 cells, the “ALDH (+) Cell number ave (fold)” value was determined as 0.42 fold and the “ALDH (-) Cell number ave (fold)” value stood at 0.72 fold. Further, in [1] (MCF-7, 0.1 µM), the “ALDH (+) Cell number (10^4 cells)” value is 0.81 10^4 cells and 0.72 10^4 cells and 0.50 10^4 cells; the “ALDH (-) Cell number (10^4 cells)” value is 89.19 10^4 cells and 102.28 10^4 cells and 98.51 10^4 cells. Moreover, in data set [1] (MCF-7, 0.3 µM), the “ALDH (+) Cell number (10^4 cells) ave” value is 0.09 10^4 cells, the “ALDH (-) Cell number (10^4 cells) ave” value was 33.24 10^4 cells, the “ALDH (+) Cell number ave (fold)” value turned out to be 0.0565 fold and the “ALDH (-) Cell number ave (fold)” value is reported as 0.25 fold. Also, in data set [1] (MCF-7, 0.3 µM), the “ALDH (+) Cell number (10^4 cells)” value was 0.054 10^4 cells and 0.12 10^4 cells and 0.10 10^4 cells; the “ALDH (-) Cell number (10^4 cells)” value was 26.95 10^4 cells and 38.88 10^4 cells and 33.90 10^4 cells. In data set [1], the “population of ALDH-positive cells” value is “reduced the population of ALDH-positive cells”; the “ALDH-positive cells ave (fold)” value was 0.29 fold; the ALDH-positive cells ave was 0.40%; the “ALDH-positive cells (%)” value is 0.4% and 0.6% and 0.2%. In [1] (MCF-7, 1 µM), the “ALDH (+) Cell number (10^4 cells) ave” value was 0.09 10^4 cells, the “ALDH (-) Cell number (10^4 cells) ave” value was 23.57 10^4 cells, the “ALDH (+) Cell number ave (fold)” value stood at 0.06 fold and the “ALDH (-) Cell number ave (fold)” value is on record as 0.18 fold. In [1] (MCF-7, 1 µM), the “ALDH (+) Cell number (10^4 cells)” value is 0.14 10^4 cells and 0.08 10^4 cells and 0.05 10^4 cells; the “ALDH (-) Cell number (10^4 cells)” value is 23.86 10^4 cells and 20.92 10^4 cells and 25.95 10^4 cells. Moreover, the “cytotoxicity against ALDH-positive cells” value in data set [1] (MCF-7, lower concentrations) was “selective and potent cytotoxicity against ALDH-positive cells”.
As to `C=C1CCC2C(C)(CCC=C(C)C)C(O)CCC2(C)C1Cc1c(OC)oc(CO)c(C(=O)OC)c1=O` (stereo not drawn) [Compound 13], on Aβ42, the “formation of typical amyloid fibrils of Aβ42” value was “strongly prevented”.
As to `C=C1CC[C@@H]2[C@](C)(CC[C@H]3O[C@H](C=C(C)C)C[C@@]23C)[C@@H]1Cc1c(OC)oc(C)c(C)c1=O` [Compound 22, O-methylated higginsianin A], in data set [1], the “population of ALDH-positive cells” value was “reduced the population of ALDH-positive cells”; the “ALDH-positive cells ave (fold)” value came to 0.38 fold; the ALDH-positive cells ave came to 0.53%; the “ALDH-positive cells (%)” value was 0.4% and 0.5% and 0.7%.
`C=C1CCC2C3(C)CC(C=C(C)C)OC3CCC2(C)C1Cc1c(OC)oc(C)c(C)c1=O` (stereo not drawn) [Compound 23]: the GI50 in the data set with SF-295 is 1.12 µM; in the data set on PC-3, 10.9 µM; with HCC2998 it was 12 µM; in the data set on OVCAR-4, 7.04 µM; with DMS273, 0.265 µM; in the data set with MCF-7, 1.01 µM. For the same molecule, the GI50 with SF-268 came out at 8.62 µM; in the data set with DU-145 it was 12.3 µM; in the data set on RXF-631L it was 10.2 µM; with St-4, 12.4 µM; with NCI-H522, 0.721 µM; in the data set on SF-539 it was 5.57 µM.
